Measured values: ChEMBL document CHEMBL5137017, “Identification of NVP-CLR457 as an Orally Bioavailable Non-CNS-Penetrant pan-Class IA Phosphoinositol-3-Kinase Inhibitor” (J Med Chem, 2022)
≈ marks a conversion by molar mass, not a printed value. Calls of active or inactive are those of the source. No cut-off for these calls is given here.

Experiments:
[1] = Volume of distribution at steady state in OF1 mouse at 10 mg/kg,po or 3 mg/kg,iv measured upto 24 hrs by LC-MS/MS analysis; format: ADME, organism-based; conditions: in vivo
[2] = AUCinfinity in Beagle dog at 6 mg/kg, po measured upto 24 hrs using crystalline form of sample by LC-MS/MS analysis; format: ADME, organism-based, Canis lupus familiaris; set-up: dose 6 mg/kg, time < 24 hrs, route po; conditions: in vivo
[3] = Dose normalized AUC in Sprague-Dawley rat at 30 mg/kg, po measured upto 24 hrs by LC-MS/MS analysis; format: ADME, organism-based; conditions: in vivo
[4] = Inhibition of PI3K PTEN mutant in human MDA-MB-436 cells assessed as reduction in phosphorylation of AKT at Ser473 residue by Western blot analysis; format: cell-based
Mus musculus = test: In vivo Inhibition of AKT phosphorylation at Ser473 residue in athymic nude mouse xenografted with rat Rat1-myr-p110alpha cells at 10 mg/kg, po qd measured after 1 to 4 hrs; format: functional, organism-based; conditions: time 1-4 hrs
[5] = In vivo Inhibition of AKT phosphorylation at Ser473 residue in plasma of athymic nude mouse xenografted with rat Rat1 cells expressing myr-p110alpha; format: functional, organism-based
[6] = Toxicity in athymic nude mouse xenografted with rat Rat1 cells expressing myr-p110delta assessed as drug tolerance at 20 mg/kg, po bid measured for 7 to 15 days; format: organism-based; conditions: in vivo, time 7-15 day
[7] = Tmax in Sprague-Dawley rat at 30 mg/kg, po measured upto 24 hrs by LC-MS/MS analysis; format: ADME, organism-based; conditions: in vivo
Rat1 [8] = test: Antitumor activity at rat Rat1 cells expressing myr-p110alpha xenografted in athymic nude mouse assessed as T/C ratio at 10 mg/kg, po qd measured after 14 to 22 days; format: functional; conditions: time 14-22 day
[9] = Inhibition of PI3K PTEN mutant in human MDA-MB-468 cells assessed as reduction in phosphorylation of AKT at Ser473 residue by Western blot analysis; format: cell-based
[10] = Aqueous solubility of compound in buffer at pH 7.4 by HPLC analysis; format: physicochemical
[11] = Dose normalized AUC in Sprague-Dawley rat at 100 mg/kg, po measured upto 24 hrs by LC-MS/MS analysis; format: ADME, organism-based; conditions: in vivo
Rat1 [12] = test: Antitumor activity at rat Rat1 cells expressing myr-p110delta xenografted in athymic nude mouse assessed as T/C ratio at 20 mg/kg, po bid measured after 7 to 15 days; format: functional; conditions: time 7-15 day
Rat1 [13] = test: Antitumor activity at rat Rat1 cells expressing myr-p110alpha xenografted in athymic nude mouse assessed as T/C ratio at 20 mg/kg, po bid measured after 15 to 24 days; format: functional; conditions: time 15-24 day
[14] = Effect on blood glucose level in athymic nude mouse xenografted with rat Rat1 cells expressing myr-p110alpha at 20 mg/kg, po bid measured upto 14 hrs by glucometer analysis; format: toxicity, organism-based; conditions: in vivo
[15] = Tlast in athymic nude mouse xenografted with rat Rat1 cells expressing myr-p110alpha at 10 mg/kg, po measured after 8 days by LC-MS/MS analysis; format: ADME, organism-based; conditions: in vivo, 192 h, time 8 day
[16] = Half life in Beagle dog at 5.4 mg/kg, po measured upto 24 hrs using PVP-ASD form of sample by LC-MS/MS analysis; format: ADME, organism-based, Canis lupus familiaris; conditions: in vivo
[17] = Dose normalized Cmax in beagle dog at 0.3 mg/kg, po measured upto 24 hrs by LC-MS/MS analysis; format: ADME, organism-based, Canis lupus familiaris; conditions: in vivo
[18] = Volume of distribution at steady state in Sprague-Dawley rat at 3 mg/kg, po or iv measured upto 24 hrs by LC-MS/MS analysis; format: ADME, organism-based; conditions: in vivo
[19] = Tmax in Beagle dog at 6 mg/kg, po measured upto 24 hrs using crystalline form of sample by LC-MS/MS analysis; format: ADME, organism-based, Canis lupus familiaris; conditions: in vivo
[20] = Tmax in OF1 mouse at 10 mg/kg,po or 3 mg/kg,iv measured upto 24 hrs by LC-MS/MS analysis; format: ADME, organism-based; conditions: in vivo
[21] = Effect on blood glucose level in athymic nude mouse xenografted with rat Rat1 cells expressing myr-p110alpha assessed as fold increase at 40 mg/kg, po bid measured for 2 to 10 hrs by glucometer analysis; format: toxicity, organism-based; conditions: in vivo, time 2-10 hrs
[22] = AUC in Sprague-Dawley rat at 1 mg/kg, iv measured for 0.083 to 48 hrs by LC-MS/MS analysis; format: ADME, organism-based; set-up: time upper 48 hrs, dose 1 mg/kg, time lower 0.083 hrs, route iv; conditions: in vivo
[23] = Oral bioavailability in Sprague-Dawley rat at 3 mg/kg measured for 0.25 to 24 hrs by LC-MS/MS analysis; format: ADME, organism-based; conditions: in vivo, time 0.25-24 hrs
[24] = Brain to blood ratio in OF1 mouse at 1 mg/kg, iv measured at 1 hr post dose by LC-MS/MS analysis; format: ADME, organism-based; conditions: brain and blood, read-out: BBR
[25] = 1-octanol, logP of the compound at pH 7.4; format: physicochemical
[26] = Half life in beagle dog at 0.3 mg/kg,po or 0.1 mg/kg,iv measured upto 24 hrs by LC-MS/MS analysis; format: ADME, organism-based, Canis lupus familiaris; conditions: in vivo
[27] = Effect on plasma insulin level in athymic nude mouse xenografted with rat Rat1 cells expressing myr-p110alpha at 10 mg/kg, po qd measured upto 14 hrs by glucometer analysis; format: toxicity, organism-based; conditions: in vivo
[28] = Cmax in Beagle dog at 5.4 mg/kg, po measured upto 24 hrs using PVP-ASD form of sample by LC-MS/MS analysis; format: ADME, organism-based, Canis lupus familiaris; set-up: dose 5.4 mg/kg, time < 24 hrs, route po; conditions: in vivo
[29] = Inhibition of PI3K PTEN mutant in human HCC70 cells assessed as reduction in phosphorylation of AKT at Ser473 residue by Western blot analysis; format: cell-based
[30] = Dose normalized AUC in Sprague-Dawley rat at 3 mg/kg, po measured upto 24 hrs by LC-MS/MS analysis; format: ADME, organism-based; conditions: in vivo
[31] = Tlast in athymic nude mouse xenografted with rat Rat1 cells expressing myr-p110alpha at 20 mg/kg, po measured after 8 days by LC-MS/MS analysis; format: ADME, organism-based; conditions: in vivo, 192 h, time 8 day
[32] = Inhibition of PI3K PTEN mutant in human HCC1937 cells assessed as reduction in phosphorylation of AKT at Ser473 residue by Western blot analysis; format: cell-based
[33] = Brain to blood ratio in OF1 mouse at 1 mg/kg, iv measured at 5 mins post dose by LC-MS/MS analysis; format: ADME, organism-based; conditions: brain and blood, read-out: BBR
[34] = Dose normalized AUC in OF1 mouse plasma at 10 mg/kg, po measured upto 24 hrs by LC-MS/MS analysis; format: ADME, organism-based; conditions: in vivo
[35] = In vivo Inhibition of AKT phosphorylation at Ser473 residue in athymic nude mouse xenografted with rat Rat1-myr-p110alpha cells at 20 mg/kg, po qd measured after 14 hrs; format: functional
[36] = Efflux ratio of apparent permeability from […] in human Caco-2 cells at 10 uM incubated upto 120 mins by LC-MS/MS analysis; format: ADME, cell-based; conditions: caco-2, 2 h
[37] = Antitumor activity at patient derived human HBRX2524 xenografted in athymic nude mouse assessed as T/C ratio at 40 mg/kg, po qd measured upto 16 days; format: functional; conditions: time <= 16 day
[38] = Dose normalized AUC in beagle dog at 3 mg/kg, po measured upto 24 hrs by LC-MS/MS analysis; format: ADME, organism-based, Canis lupus familiaris; conditions: in vivo

C[C@H]1OC(=O)N(c2nc(-c3cnc(N)nc3C(F)(F)F)cc(N3CCOCC3)n2)[C@H]1CO
Vdss [1]: 2 L/kg | AUC(0-inf) [2]: 44.6 µM·h | AUC/dose [3]: 913 nM·h | IC50 [4]: 179 nM | inhibition (Mus musculus): Active | IC80 [5]: 800 nM | IC50 ([5]; Mus musculus): 200 nM | Activity [6]: Toxic | Tmax [7]: 4 h | T/C (Rat1 [8]): 0.14 | IC50 [9]: 263 nM | solubility [10]: 26 µM (≈ 11.8 µg/mL) | AUC/dose [11]: 784 nM·h | T/C (Rat1 [12]): -0.52 | T/C (Rat1 [13]): -0.8 | Activity [14]: Non-Toxic | Tlast [15]: 14 h | half-life [16]: 9.9 h | Cmax/dose [17]: 1.121 µM | Vdss [18]: 4.4 L/kg | Tmax [19]: 4 h | Tmax [20]: 0.5 h | fold change (FC) [21]: 2 | AUC [22]: 1.77 µM·h | bioavailability [23]: 97% | Kp at 1 h [24]: 0.05 | logD [25]: 2 | half-life [26]: 11 h | Activity [27]: Toxic | Cmax [28]: 10.7 µM | IC50 [29]: 56 nM | AUC/dose [30]: 1709 nM·h | Tlast [31]: 14 h | IC50 [32]: 251 nM | Kp at 5 min [33]: 0.02 | AUC/dose [34]: 1738 nM·h | inhibition in vivo at 20 mg/kg [35]: 76% | Ratio [36]: 2.2 | T/C [37]: -0.2 | AUC/dose [38]: 11213 nM·h
